Test results taken from US20240197871A1, “COMBINATION OF A CAR T CELL THERAPY AND AN IMMUNOMODULATORY COMPOUND FOR TREATMENT OF LYMPHOMA” (Juno Therapeutics, Inc., priority 2021, published 2024).

Key:
[1] = system: anti-CD19 CAR T cells; experiment: Intracellular cytokine levels in stimulated anti-CD19 CAR T cells; type: cell-based, human; settings: 72 hours, 30 μg/mL anti-idiotypic antibody
Description: (§1) Anti-CD19 CAR-expressing T cell compositions were generated from three different healthy donors as described in Example 1. Prior to use, cryopreserved CD4+ and CD8+ engineered cell compositions were thawed and combined at approximately a 1:1 CD4:CD8 ratio.
(§2) Following incubation, stimulated CAR T cells were harvested, washed twice in media, and assessed.
Intracellular cytokine levels in CAR T cells that had been stimulated for 72 hours with 30 μg/mL of anti-idiotypic antibody were determined. To do so, supernatants were collected from the stimulated CAR T cells and were analyzed for interferon-γ (IFN-γ) and interleukin-2 (IL-2) content using a multiplex electrochemiluminescence assay. To stain for intracellular cytokines, including Perforin and Granzyme B, cells were fixed and permeabilized using a Foxp3/Transcription Factor Staining Buffer Set (Thermo Fisher Scientific). Intracellular cytokine levels of IFNγ, perforin, granzyme B, and IL-2 were then determined by flow cytometry. […] Log2 fold-change values greater than zero are indicated with a “+” in FIG. 2F. Similar results were observed when measuring the percentage of cells positive for the cytokines.

[2] = system: CAR-expressing CD8 T cells; experiment: T cell memory markers CD27/CCR7 after chronic stimulation (flow cytometry); type: cell-based, human
Description: Similar results are shown in FIG. 7B for a separate experiment in which CAR T cells were chronically stimulated for 7 days in the presence or absence of Compound C. In this experiment, Compound C was present at (i) 50 nM for one day and 1 nM for the remaining six days of stimulation, (ii) 25 nM for one day and 0.5 nM for the remaining six days of stimulation, (iii) 10 nM for all seven days of stimulation, or (iv) 1 nM for all seven days of stimulation. Stimulated CAR T cells were then re-challenged with Raji lymphoma tumor spheroids in the absence of Compound C, after which cytolytic activity was assessed over a four-day period. […] The CAR T cells stimulated for seven days in the presence or absence of Compound C were also analyzed for phenotypic T cell memory markers using flow cytometry following chronic stimulation. […] CD27/CCR7 expression, which is a marker for less differentiated, naïve-like T cells, was highest in CAR-expressing CD8 T cells stimulated in the presence of Compound C at 50 nM for one day and 1 nM for the remaining six days of stimulation (* P<0.05).

[3] = system: anti-CD19 CAR T cells; experiment: Proliferation (cell doublings) of stimulated anti-CD19 CAR T cells, IncuCyte; type: cell-based, human
Description: as §1, §2
Proliferation of T cells during culture with the plate-bound anti-idiotypic antibody was monitored for seven days using an IncuCyte® Live Cell Analysis System (Essen BioScience Inc.), and the number of cell doublings of cells stimulated with 30 μg/mL of anti-idiotypic antibody is shown in FIG. 2B and FIG. 2C for the three donors (mean±SEM).

[4] = target: T1, Ikaros (Homo sapiens, UniProt Q13422+Q96SW2); experiment: Ikaros degradation in stimulated anti-CD19 CAR T cells (flow cytometry MFI); type: cell-based
T1 construct: analyzed by flow cytometry to assess intracellular levels of Ikaros and Aiolos in CAR+ T cells; endogenous in cells; host or cells: primary human CD4+ and CD8+ T cells from healthy donors, lentivirally transduced with an anti-CD19 CAR
T1 sequence (Q13422 whole entry): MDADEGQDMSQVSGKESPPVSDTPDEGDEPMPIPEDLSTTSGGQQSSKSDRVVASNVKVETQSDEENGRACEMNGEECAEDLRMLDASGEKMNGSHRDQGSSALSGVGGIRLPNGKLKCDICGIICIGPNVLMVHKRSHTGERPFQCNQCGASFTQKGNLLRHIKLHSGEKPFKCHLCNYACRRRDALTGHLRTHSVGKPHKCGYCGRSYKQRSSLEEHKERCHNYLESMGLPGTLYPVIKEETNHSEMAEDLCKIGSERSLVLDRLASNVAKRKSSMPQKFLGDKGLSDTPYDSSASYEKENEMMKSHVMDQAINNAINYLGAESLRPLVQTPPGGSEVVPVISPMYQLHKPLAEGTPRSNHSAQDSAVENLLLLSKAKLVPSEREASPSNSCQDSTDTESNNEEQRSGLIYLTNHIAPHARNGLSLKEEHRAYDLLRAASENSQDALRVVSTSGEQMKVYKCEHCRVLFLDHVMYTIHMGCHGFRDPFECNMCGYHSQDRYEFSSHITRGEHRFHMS
T1 sequence (Q96SW2 whole entry): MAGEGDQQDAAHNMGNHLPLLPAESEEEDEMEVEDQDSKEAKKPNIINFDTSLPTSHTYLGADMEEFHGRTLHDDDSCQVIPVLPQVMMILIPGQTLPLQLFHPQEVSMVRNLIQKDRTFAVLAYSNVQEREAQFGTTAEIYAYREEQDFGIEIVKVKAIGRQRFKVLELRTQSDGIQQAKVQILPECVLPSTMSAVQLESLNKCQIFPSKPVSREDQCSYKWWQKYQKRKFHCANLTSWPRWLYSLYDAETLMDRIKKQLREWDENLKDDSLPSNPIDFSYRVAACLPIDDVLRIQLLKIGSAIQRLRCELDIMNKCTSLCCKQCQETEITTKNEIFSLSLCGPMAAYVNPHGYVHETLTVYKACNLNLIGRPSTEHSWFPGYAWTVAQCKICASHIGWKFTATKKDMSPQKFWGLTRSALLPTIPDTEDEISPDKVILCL
T1 sequence (Q16531 whole entry partner): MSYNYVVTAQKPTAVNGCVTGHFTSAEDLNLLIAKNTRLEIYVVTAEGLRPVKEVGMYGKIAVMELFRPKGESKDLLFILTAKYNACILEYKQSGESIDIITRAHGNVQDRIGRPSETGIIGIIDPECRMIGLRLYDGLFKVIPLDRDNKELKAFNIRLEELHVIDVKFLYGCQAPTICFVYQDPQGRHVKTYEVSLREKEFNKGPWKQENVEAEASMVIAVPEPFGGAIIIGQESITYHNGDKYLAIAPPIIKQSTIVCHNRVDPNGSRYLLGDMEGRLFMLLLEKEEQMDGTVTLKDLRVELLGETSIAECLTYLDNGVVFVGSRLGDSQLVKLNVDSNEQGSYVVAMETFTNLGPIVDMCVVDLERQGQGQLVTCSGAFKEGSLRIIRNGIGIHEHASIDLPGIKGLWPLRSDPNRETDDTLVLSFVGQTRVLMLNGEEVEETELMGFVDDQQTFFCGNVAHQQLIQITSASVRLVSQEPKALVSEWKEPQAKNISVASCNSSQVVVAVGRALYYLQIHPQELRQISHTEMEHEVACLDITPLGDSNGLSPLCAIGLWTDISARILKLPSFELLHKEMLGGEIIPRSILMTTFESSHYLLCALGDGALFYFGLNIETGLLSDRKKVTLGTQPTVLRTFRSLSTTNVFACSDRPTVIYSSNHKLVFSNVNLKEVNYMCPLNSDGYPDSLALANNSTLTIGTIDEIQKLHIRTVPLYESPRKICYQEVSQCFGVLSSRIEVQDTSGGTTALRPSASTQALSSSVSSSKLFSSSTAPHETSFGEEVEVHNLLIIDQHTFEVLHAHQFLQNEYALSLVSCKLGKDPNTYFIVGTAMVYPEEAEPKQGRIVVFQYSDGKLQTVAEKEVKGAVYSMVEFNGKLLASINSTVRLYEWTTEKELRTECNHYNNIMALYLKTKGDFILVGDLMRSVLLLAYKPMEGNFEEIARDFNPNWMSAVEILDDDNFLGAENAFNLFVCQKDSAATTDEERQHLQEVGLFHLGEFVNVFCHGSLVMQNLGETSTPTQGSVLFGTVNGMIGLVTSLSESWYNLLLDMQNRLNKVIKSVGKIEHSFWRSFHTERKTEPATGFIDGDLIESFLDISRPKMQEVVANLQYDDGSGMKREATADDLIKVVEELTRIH
Excerpt: T cell compositions containing anti-CD19 CAR-expressing T cells were generated from leukapheresis samples from five healthy human adult donors by a process that included immunoaffinity-based selection of T cells by separately selecting CD4+ and CD8+ cells from the samples, resulting in two compositions enriched for CD4+ and CD8+ cells, respectively, per donor. Cells of the enriched CD4+ and CD8+ compositions were separately activated with anti-CD3/anti-CD28 beads and subjected to lentiviral transduction with a vector encoding an anti-CD19 CAR. The anti-CD19 CAR contained an anti-CD19 single-chain variable fragment (scFv) derived from a murine antibody (variable region derived from FMC63), an immunoglobulin-derived spacer, a transmembrane domain derived from CD28, a costimulatory region derived from 4-1BB, and a CD3-zeta intracellular signaling domain. The expression construct in the viral vector further contained sequences encoding a surrogate surface marker for CAR expression, which was separated from the CAR-encoding sequence by a T2A ribosome skip sequence. Transduced populations then were separately incubated in the presence of stimulating reagents for cell expansion. Expanded CD4+ and CD8+ cells were formulated and cryopreserved separately and stored.
Prior to use, the cryopreserved CD4+ and CD8+ engineered cell compositions were thawed and combined at approximately a 1:1 CD4:CD8 ratio for each donor. Cells of the combined composition were then stimulated at 37° C. with 5% CO2 for 24 hours with 30 µg/mL of a CAR-specific anti-idiotypic antibody (see, e.g., WO2018/023100).
Following incubation, the stimulated cells were stained with antibodies and analyzed by flow cytometry to assess intracellular levels of Ikaros and Aiolos in CAR+ T cells, as measured by median fluorescence intensity (MFI). MFI values for Ikaros and Aiolos were normalized and calculated as a percentage relative to vehicle control.

[5] = system: Granta-519 lymphoma tumor spheroids or A549 tumor spheroids; experiment: Chronic stimulation with rescue treatment during re-challenge with tumor spheroids; type: cell-based
Description: Anti-CD19 CAR-expressing T cells, produced as described in Example 1, were chronically stimulated as described in Example 3, but in the absence of Compound C during stimulation. Instead, chronically stimulated CAR T cells were treated with Compound C during re-challenge with Granta-519 lymphoma tumor spheroids or A549 tumor spheroids, after which cytolytic activity, cytokine production, and gene expression of the CAR T Cells was assessed.
FIGS. 4B and 4C show the volume of tumor spheroids co-cultured with anti-CD19 CAR T cells in the presence of Compound C.

- DC50 ([4]; anti-CD19 CAR T cells, 24 hours stimulation with anti-idiotypic antibody, concentration reducing MFI to 50%, average of five donors, read-out: Average EC50 Values (95% Confidence Interval), Ikaros): 310 pM
- intracellular Ikaros expression (MFI relative to vehicle control) ([4]; approximately 10^-1 to 10^4 nM, 24 hours): Concentration-dependent decreases
- Ikaros expression compared with Compound 2 or Compound 1 ([4]; at all compound concentration levels tested): lower
Compound: O=C1CC[C@H](N2C(=O)c3cccc(NCc4ccc(CN5CC(N6CCOCC6)C5)cc4F)c3C2=O)C(=O)N1 [Compound C, (S)-2-(2,6-dioxopiperidin-3-yl)-4-((2-fluoro-4-((3-morpholinoazetidin-1-yl)methyl)benzyl)amino)isoindoline-1,3-dione]
- intracellular expression of effector cytokines (IFNγ, perforin, granzyme B), fold change in MFI vs vehicle [1]: increased production of certain cytokines
- CD27/CCR7 expression ([2]; 50 nM for one day and 1 nM for the remaining six days of stimulation, P<0.05): highest
- percentage of CD27+/CCR7+ cells vs stimulation in the absence of compound ([2]; seven days of chronic stimulation in the presence of compound): higher percentages of CD27+/CCR7+ cells
- CAR T cell proliferation ([3]; 1 nM, P<0.001): decreased
- CAR T cell proliferation ([3]; 10 nM, P<0.0001): further decreased
- decrease of cell doublings compared with the other compounds ([3]; at all doses tested): greatest decrease of doublings
- tumor volume vs chronically stimulated CAR T cells alone or compound alone ([5]; 1 nM during re-challenge (rescue) with CAR T cells, P<0.0001): more reduced
- IFNγ cytokine production five days after re-challenge ([5]; 1 nM during re-challenge (rescue), P<0.0001): highest
- tumor volume vs chronically stimulated CAR T cells alone or compound alone ([5]; 10 nM during re-challenge (rescue) with CAR T cells, P<0.0001): more reduced
- IFNγ cytokine production five days after re-challenge ([5]; 10 nM during re-challenge (rescue), P<0.05): increased
